Our source for the proliferation of myoblasts values is patent publication US20140349396A1, “Compositions and Methods Relating to Clonal Progenitor Cells” (priority 2011, published 2014).

This test has as its system myoblasts. In words: Culture of hES-derived clonal myoblasts with or without the TGFβ inhibitor. Type of test: cell-based, human. Particulars: removal of SB431542 together with switch from Matrigel to gelatin substrate (FIG. 11). The text has this: FIG. 11 is a photomicrograph showing myoblasts grown on Matrigel® in the presence of a TGFβ inhibitor (SB431542)(top) and myoblasts switched to gelatin without the TGFβ inhibitor.

With `NC(=O)c1ccc(-c2nc(-c3ccc4c(c3)OCO4)c(-c3ccccn3)[nH]2)cc1` [SB431542], the proliferation of myoblasts result is “increased proliferation”.
